In patent US20130345214A1, “Lipoxygenase Inhibitors” (SRI International, Inc., priority 2011, published 2013):
Where two headings read alike, the source gives them in different places.

Experiments:
[1] = test system: amyloid-beta (Abeta) formation; assay: secreted Abeta40/Abeta42 ELISA in N2A-APPswe cells; type: cell-based; conditions: Mus musculus, 24 hours treatment
Experimental: A neuronal cell-based screening assay capable of sensitive and selective detection of secreted Aβ40 and Aβ42 was established. Mouse neuro-2A neuroblastoma (N2A) cells were co-transfected with pSV2neo selection plasmid and a human APP gene carrying the K670N/M671L Swedish mutations (APPswe) that are known to cause early-onset AD. The transfected cells were selected in G418-containing medium, and single colonies were analyzed for the expression of APPswe. The resulting stable cell line, N2A-APPswe, provides a platform for screening inhibitors that alter Aβ formation from the human APPswe gene. Levels of secreted Aβ40 and Aβ42 in the medium can be quantified by ELISA kits. Table 4 provides results for exemplary subject bisindole compounds on amyloid-beta (Abeta) formation at 5 μM after 24 hours treatment in N2A-APPswe cells.

5-LOX = molecular target: T1, 5-LOX (Homo sapiens, UniProt P09917); assay: fluorescence-based enzyme assay of human 5-LOX (Table 3); type: biochemical; conditions: 3 μM
T1 sequence (P09917 1-674): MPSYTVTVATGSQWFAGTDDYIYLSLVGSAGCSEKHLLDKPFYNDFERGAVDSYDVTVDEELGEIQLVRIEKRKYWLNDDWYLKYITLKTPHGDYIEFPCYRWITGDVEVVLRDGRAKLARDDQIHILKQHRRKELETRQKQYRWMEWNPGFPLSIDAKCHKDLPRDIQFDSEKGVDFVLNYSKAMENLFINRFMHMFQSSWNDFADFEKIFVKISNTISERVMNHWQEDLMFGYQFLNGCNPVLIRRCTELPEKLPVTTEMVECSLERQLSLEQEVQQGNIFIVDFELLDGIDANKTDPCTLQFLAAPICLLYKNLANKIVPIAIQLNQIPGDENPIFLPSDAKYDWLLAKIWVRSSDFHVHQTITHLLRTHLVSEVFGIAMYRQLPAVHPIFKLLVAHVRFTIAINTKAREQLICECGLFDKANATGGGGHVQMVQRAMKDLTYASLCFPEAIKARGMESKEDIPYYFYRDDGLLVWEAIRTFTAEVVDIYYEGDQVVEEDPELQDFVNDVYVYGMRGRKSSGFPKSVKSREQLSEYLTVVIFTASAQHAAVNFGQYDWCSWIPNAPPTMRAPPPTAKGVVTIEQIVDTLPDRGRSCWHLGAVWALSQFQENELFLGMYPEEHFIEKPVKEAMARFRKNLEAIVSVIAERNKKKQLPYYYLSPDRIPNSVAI
Text: (§1) Table 3 provides results for exemplary subject bisindole compounds on 5-LOX, 12-LOX and 15-LOX.

human 12-LOX = molecular target: T2, human 12-LOX (Homo sapiens, UniProt P18054); assay: colorimetric platelet 12-LOX activity assay (ferric oxidation of xylenol orange, human blood platelets); type: cell-based; conditions: 3 μM
T2 construct: ferric oxidation of xylenol orange from arachidonic acid in human blood platelets; endogenous in cells; host or cells: human blood platelets
T2 sequence (P18054 1-663): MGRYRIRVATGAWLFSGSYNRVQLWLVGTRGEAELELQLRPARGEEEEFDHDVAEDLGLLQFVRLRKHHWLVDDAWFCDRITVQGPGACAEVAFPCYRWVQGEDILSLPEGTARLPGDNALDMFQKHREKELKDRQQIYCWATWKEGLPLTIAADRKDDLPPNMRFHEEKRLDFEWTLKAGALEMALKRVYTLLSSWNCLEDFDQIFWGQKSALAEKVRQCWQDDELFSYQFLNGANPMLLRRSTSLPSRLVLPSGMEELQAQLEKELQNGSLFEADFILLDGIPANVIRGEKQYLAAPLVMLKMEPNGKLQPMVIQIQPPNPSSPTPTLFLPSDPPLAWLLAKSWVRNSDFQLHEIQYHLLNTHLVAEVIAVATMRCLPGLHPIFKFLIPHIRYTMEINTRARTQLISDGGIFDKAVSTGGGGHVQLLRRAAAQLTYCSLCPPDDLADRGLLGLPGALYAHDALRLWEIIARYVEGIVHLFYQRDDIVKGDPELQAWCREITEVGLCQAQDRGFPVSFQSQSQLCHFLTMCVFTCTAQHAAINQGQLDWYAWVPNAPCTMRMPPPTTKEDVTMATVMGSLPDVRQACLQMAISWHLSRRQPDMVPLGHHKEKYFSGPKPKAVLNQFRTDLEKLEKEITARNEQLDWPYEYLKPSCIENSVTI
Text: as §1

15-LOX-2 = molecular target: T3, 15-LOX-2 (Homo sapiens, UniProt O15296); assay: in vitro 15-LOX-2 inhibition (Table 3); type: biochemical
T3 sequence (O15296 1-676): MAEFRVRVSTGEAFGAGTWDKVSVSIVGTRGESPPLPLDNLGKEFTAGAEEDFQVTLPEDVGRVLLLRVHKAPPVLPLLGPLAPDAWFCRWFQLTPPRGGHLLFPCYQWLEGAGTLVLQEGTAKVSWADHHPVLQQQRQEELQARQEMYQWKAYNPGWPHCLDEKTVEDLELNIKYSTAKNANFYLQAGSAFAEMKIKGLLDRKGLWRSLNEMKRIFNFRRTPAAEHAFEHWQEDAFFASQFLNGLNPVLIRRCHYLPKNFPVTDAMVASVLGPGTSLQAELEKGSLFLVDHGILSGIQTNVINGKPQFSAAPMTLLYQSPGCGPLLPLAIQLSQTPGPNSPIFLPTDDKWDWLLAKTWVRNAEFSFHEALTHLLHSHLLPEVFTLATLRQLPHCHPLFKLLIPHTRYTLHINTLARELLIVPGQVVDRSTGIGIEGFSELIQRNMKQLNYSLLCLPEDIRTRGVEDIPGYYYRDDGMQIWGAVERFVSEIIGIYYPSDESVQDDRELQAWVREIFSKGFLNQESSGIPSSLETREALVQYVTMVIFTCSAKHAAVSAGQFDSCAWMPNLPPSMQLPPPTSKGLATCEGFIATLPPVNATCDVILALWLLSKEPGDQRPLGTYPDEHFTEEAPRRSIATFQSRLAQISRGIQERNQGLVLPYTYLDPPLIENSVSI
Text: as §1

[2] = read-out: Abeta 40 formation (% of control)
[3] = read-out: Abeta 42 formation (% of control)

Fc1ccc2[nH]c3c(OC[C@@H]4C[C@H](F)CN4)c4[nH]c5ccc(F)cc5c4cc3c2c1 [drawing 34]
activity at 5 µM [1, 2]: 93%
activity at 5 µM [1, 3]: 67%

Nc1nnnn1CCOc1c2[nH]c3ccc(Cl)cc3c2cc2c1[nH]c1ccc(Cl)cc12 [drawing 10]
inhibition at 3 µM (5-LOX): 85%
inhibition at 3 µM (human 12-LOX): 73%
inhibition at 3 µM (15-LOX-2): 24%

Cc1nnnn1CCOc1c2[nH]c3ccc(F)cc3c2cc2c1[nH]c1ccc(F)cc12
activity at 5 µM [1, 2]: 66%
activity at 5 µM [1, 3]: 36%

Fc1ccc2[nH]c3c(OCC4CCCN4)c4[nH]c5ccc(F)cc5c4cc3c2c1 (centres unmarked) [drawing 36]
activity at 5 µM [1, 2]: 65%
activity at 5 µM [1, 3]: 52%

Fc1ccc2[nH]c3c(OC4CCNC4)c4[nH]c5ccc(F)cc5c4cc3c2c1 (centres unmarked) [drawing 29]
activity at 5 µM [1, 2]: 71%
activity at 5 µM [1, 3]: 9%

Fc1ccc2[nH]c3c(OC4CCNC4)c4[nH]c5ccc(F)cc5c4cc3c2c1 (centres unmarked) [drawing 12]
inhibition at 3 µM (5-LOX): 86%
inhibition at 3 µM (human 12-LOX): 80%
inhibition at 3 µM (15-LOX-2): 51%

c1ccc2c(c1)[nH]c1c(OCCCN3CCOCC3)c3[nH]c4ccccc4c3cc12
activity at 5 µM [1, 2]: 95%
activity at 5 µM [1, 3]: 25%

F[C@@H]1CN[C@H](COc2c3[nH]c4ccc(Cl)cc4c3cc3c2[nH]c2ccc(Cl)cc23)C1
activity at 5 µM [1, 2]: 59%
activity at 5 µM [1, 3]: 3%

Fc1ccc2[nH]c3c(OC[C@H]4CCCN4)c4[nH]c5ccc(F)cc5c4c(Cl)c3c2c1
inhibition at 3 µM (5-LOX): 91%
inhibition at 3 µM (human 12-LOX): 80%
inhibition at 3 µM (15-LOX-2): 45%

CN(C)CCOc1c2[nH]c3ccc(F)cc3c2cc2c1[nH]c1ccc(F)cc12 [drawing 24]
activity at 5 µM [1, 2]: 79%
activity at 5 µM [1, 3]: 76%

Fc1ccc2[nH]c3c(OCCn4cncn4)c4[nH]c5ccc(F)cc5c4cc3c2c1
activity at 5 µM [1, 2]: 53%
activity at 5 µM [1, 3]: 30%

Cl.Fc1ccc2[nH]c3c(OCC4CCCN4)c4[nH]c5ccc(F)cc5c4cc3c2c1 (centres unmarked)
5-LOX % Inhibition at 3 μM (5-LOX): 95%
12-LOX % Inhibition at 3 μM (human 12-LOX): 77%
15-LOX-2 % Inhibition at 3 μM (15-LOX-2; 3 µM): 63%

Fc1ccc2[nH]c3c(OCC4CCCN4)c4[nH]c5ccc(F)cc5c4c(Cl)c3c2c1 (centres unmarked)
activity at 5 µM [1, 2]: 86%
activity at 5 µM [1, 3]: 62%

Fc1ccc2[nH]c3c(C(F)(F)F)c4[nH]c5ccc(F)cc5c4cc3c2c1
activity at 5 µM [1, 2]: 81%
activity at 5 µM [1, 3]: 47%

Clc1ccc2[nH]c3c(OCCCn4cncn4)c4[nH]c5ccc(Cl)cc5c4cc3c2c1 [drawing 8]
inhibition at 3 µM (5-LOX): 85%
inhibition at 3 µM (human 12-LOX): 89%
inhibition at 3 µM (15-LOX-2): 25%

N=C(N)NCCCOc1c2[nH]c3ccc(F)cc3c2cc2c1[nH]c1ccc(F)cc12 [drawing 28]
activity at 5 µM [1, 2]: 82%
activity at 5 µM [1, 3]: 58%

Fc1ccc2[nH]c3c(OCCN4CCCCC4)c4[nH]c5ccc(F)cc5c4cc3c2c1
activity at 5 µM [1, 2]: 82%
activity at 5 µM [1, 3]: 19%

Clc1ccc2[nH]c3c(OCC4CCCN4)c4[nH]c5ccc(Cl)cc5c4cc3c2c1 (centres unmarked) [drawing 30]
activity at 5 µM [1, 2]: 69%
activity at 5 µM [1, 3]: 59%
